Test [1] has as its target HDAC1 enzyme (recombinant GST-HDAC1) (Homo sapiens (Human), UniProt Q13547). The test is described as follows: In vitro HDAC assay for determination of IC50 values (BIOMOL fluorescent-based HDAC activity assay). The format is biochemical. The settings on record: Flur de lys substrate, 2 h room temperature, read-out: IC50 (HDAC 1). The procedure: Biological Testing and Enzyme Assays Recombinant GST-HDAC1 Protein Expression and Purification
Human cDNA library was prepared using cultured SW620 cells. Amplification of human HDAC1 coding region from this cDNA library was cloned separately into the baculovirus expression pDEST20 vector (GATEWAY Cloning Technology, Invitrogen Pte Ltd). The pDEST20-HDAC1 construct was confirmed by DNA sequencing. Recombinant baculovirus was prepared using the Bac-To-Bac method following the manufacturer's instruction (Invitrogen Pte Ltd).
Expression of GST-HDAC1 was done by infecting SF9 cells (Invitrogen Pte Ltd) with pDEST20-HDAC1 baculovirus at MOI=1 for 48 h. Soluble cell lysate was incubated with pre-equilibrated Glutathione Sepharose 4B beads (Amersham) at 4° C. for 2 h. The beads were washed with PBS buffer for 3 times. The GST-HDAC1 protein was eluted by elution buffer containing 50 mM Tris, pH8.0, 150 mM NaCl, 1% Triton X-100 and 10 mM or 20 mM reduced Glutathione. The purified GST-HDAC1 protein was dialyzed with HDAC storage buffer containing 10 mM Tris, pH7.5, 100 mM NaCl and 3 mM MgCl2. 20% Glycerol was added to purified GST-HDAC1 protein before storage at −80° C.
In Vitro HDAC Assay for Determination of IC50 Values
The assay has been carried out in 96 well format and the BIOMOL fluorescent-based HDAC activity assay has been applied. […] Flur de lys Developer was added and the reaction was incubated for 10 min. Briefly, deacetylation of the substrate sensitizes it to the developer, which then generates a fluorophore. The fluorophore is excited with 360 nm light and the emitted light (460 nm) is detected on a fluorometric plate reader (Tecan Ultra Microplate detection system, Tecan Group Ltd.).
The analytical software, Prism 4.0 (GraphPad Software Inc) has been used to generate IC50 from a series of data.

For test [2], the system named is Colo205 cells. Nature of the test: Cell-based proliferation assay for determination of GI50 values (CyQUANT). More on the design: species or system human. Particulars: Homo sapiens. The procedure: Cell-Based Proliferation Assay for Determination of GI50 Values
Human cancer cell lines (e.g. Colo205) were obtained from ATCC. Colo205 cells were cultivated in RPMI 1640 containing 2 mM L-Glutamine, 5% FBS, 1.0 mM Na Pyruvate. Colo205 cells were seeded in 96-wells plate at 5000 cells per well. The plates were incubated at 37° C., 5% CO2, for 24 h. Cells were treated with compounds at various concentrations for 96 h. Cell growth was then monitored using CyQUANT® cell proliferation assay (Invitrogen Pte Ltd). Dose response curves were plotted to determine GI50 values for the compounds using XL-fit (ID Business Solution, Emeryville, Calif.). GI50 is defined as the concentration of compound required for 50% inhibition of cell growth.
The cellular or growth inhibition activity results of representative compounds are shown in Table 4 below (unit in the table is micromolar).

Consider 26 compounds from patent publication US8648092B2, “Imidazo[1,2-a]pyridine derivatives: preparation and pharmaceutical applications” (MEI Pharma, priority 2005, dated 2014).

Where only a bound is given, the exact number is not on record here.

Sequence of HDAC1 enzyme (recombinant GST-HDAC1) (Q13547 whole entry): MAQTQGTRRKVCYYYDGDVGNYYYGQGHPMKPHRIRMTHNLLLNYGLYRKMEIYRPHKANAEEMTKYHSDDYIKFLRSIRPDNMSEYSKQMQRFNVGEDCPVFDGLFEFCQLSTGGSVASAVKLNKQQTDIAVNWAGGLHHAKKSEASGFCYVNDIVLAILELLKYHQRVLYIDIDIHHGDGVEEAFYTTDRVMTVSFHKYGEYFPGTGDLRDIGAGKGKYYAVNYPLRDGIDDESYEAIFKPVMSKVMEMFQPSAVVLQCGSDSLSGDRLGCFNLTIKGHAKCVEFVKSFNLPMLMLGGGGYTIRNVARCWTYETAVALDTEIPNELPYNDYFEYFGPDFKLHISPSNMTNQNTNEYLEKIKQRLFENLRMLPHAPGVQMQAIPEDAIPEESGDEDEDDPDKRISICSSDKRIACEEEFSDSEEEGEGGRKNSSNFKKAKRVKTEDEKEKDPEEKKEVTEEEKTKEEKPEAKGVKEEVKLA

What is called IC50 is the concentration that gives 50% inhibition. As a reminder, the GI50 is the concentration at which growth is held to half of that of the control. The low end stands for more potent growth inhibition, the high end for less potent growth inhibition. For the compound `CCN(CC)CCNCc1c(-c2ccccc2)nc2cc(/C=C/C(=O)NO)ccn12` [Compound 47, 3-{3-[(2-Diethylamino-ethylamino)-methyl]-2-phenyl-imidazo[1,2a]pyridin-7-yl}-N-hydroxy-acrylamide], the IC50 in test [1] was determined as 650 nM. Also, in test [2] (COLO 205, 96 h treatment), the GI50 came out at 30000 nM.

As for `CCCN(CCO)Cc1c(-c2ccccc2)nc2cc(/C=C/C(=O)NO)ccn12` [Compound 48, N-Hydroxy-3-(3-{[(2-hydroxy-ethyl)-propyl-amino]-methyl}-2-phenyl-imidazo[1,2-a]pyridin-7-yl)-acrylamide], the IC50 in test [1] stood at 1000 nM. Further, halving of growth in test [2] (COLO 205, 96 h treatment) (GI50) required 9200 nM.

With `CCCN(C)Cc1c(C(C)(C)C)nc2cc(/C=C/C(=O)NO)ccn12` [Compound 50, 3-{2-tert-Butyl-3-[(methyl-propyl-amino)-methyl]-imidazo[1,2-a]pyridin-7-yl}-N-hydroxy-acrylamide], the IC50 in test [1] worked out at 520 nM. Also, the GI50 in test [2] (COLO 205, 96 h treatment) was 2400 nM.

`CCN(CC)Cc1c(-c2ccccc2)nc2cc(/C=C/C(=O)NO)ccn12` [Compound 51, 3-(3-Diethylaminomethyl-2-phenyl-imidazo[1,2-a]pyridin-7-yl)-N-hydroxy-acrylamide]: in test [1], the IC50 was found to be 200 nM. In test [2] (COLO 205, 96 h treatment), this compound came in with a GI50 of 1100 nM.

Regarding `CCCN(CC)Cc1c(-c2ccccc2)nc2cc(/C=C/C(=O)NO)ccn12` [Compound 52, 3-{3-[(Ethyl-propyl-amino)-methyl]-2-phenyl-imidazo[1,2-a]pyridin-7-yl}-N-hydroxy-acrylamide], in test [1], the IC50 amounted to 240 nM. The compound further came in with a GI50 in test [2] (COLO 205, 96 h treatment) of 1200 nM.

In the case of `CCCN(Cc1c(-c2ccccc2)nc2cc(/C=C/C(=O)NO)ccn12)CC1CC1` [Compound 53, 3-{3-[(Cyclopropylmethyl-propyl-amino)-methyl]-2-phenyl-imidazo[1,2a]pyridin-7-yl}-N-hydroxy-acrylamide], in test [1], the IC50 was determined as 600 nM. Growth in test [2] (COLO 205, 96 h treatment) was halved (GI50) at 2900 nM.

For the compound `CCCN(Cc1c(-c2ccccc2)nc2cc(/C=C/C(=O)NO)ccn12)C(C)CC` (stereo not shown) [Compound 54, 3-{3-[(sec-Butyl-propyl-amino)-methyl]-2-phenyl-imidazo[1,2-a]pyridin-7-yl}-N-hydroxy-acrylamide], the IC50 in test [1] came out at 1000 nM. Further, the GI50 in test [2] (COLO 205, 96 h treatment) worked out at 4700 nM.

With `CC1CN(Cc2c(-c3ccccc3)nc3cc(/C=C/C(=O)NO)ccn23)CC(C)O1` (stereo not shown) [Compound 55, 3-[3-(2,6-Dimethyl-morpholin-4-ylmethyl)-2-phenyl-imidazo[1,2-a]pyridin-7-yl]-N-hydroxy-acrylamide], the IC50 in test [1] amounted to 2400 nM. In test [2] (COLO 205, 96 h treatment), this compound registered a GI50 of 9300 nM.

Turning to `CCN(CCOC)Cc1c(-c2ccccc2)nc2cc(/C=C/C(=O)NO)ccn12` [Compound 56, 3-(3-{[Ethyl-(2-methoxy-ethyl)-amino]-methyl}-2-phenyl-imidazo[1,2-a]pyridin-7-yl)-N-hydroxy-acrylamide], the IC50 in test [1] is 1600 nM. The compound also yielded a GI50 in test [2] (COLO 205, 96 h treatment) of 9000 nM.

Consider `CCN1CCN(Cc2c(-c3ccccc3)nc3cc(/C=C/C(=O)NO)ccn23)CC1` [Compound 57, 3-[3-(4-Ethyl-piperazin-1-ylmethyl)-2-phenyl-imidazo[1,2-a]pyridin-7-yl]-N-hydroxy-acrylamide], for which the IC50 in test [1] came out at 4600 nM. The same compound gave a GI50 in test [2] (COLO 205, 96 h treatment) of 14000 nM.

`O=C(C=Cc1ccn2c(CN3CCC(Cc4ccccc4)CC3)c(-c3ccccc3)nc2c1)NO` [Compound 58, 3-[3-(4-Benzyl-piperidin-1-ylmethyl)-2-phenyl-imidazo[1,2-a]pyridin-7-yl]-N-hydroxy-acrylamide]: the IC50 in test [1] was 1500 nM. This compound also yielded a GI50 in test [2] (COLO 205, 96 h treatment) of 2900 nM.

For `CC(C)(C)CNCc1c(-c2ccccc2)nc2cc(/C=C/C(=O)NO)ccn12` [Compound 59, 3-{3-[(2,2-Dimethyl-propylamino)-methyl]-2-phenyl-imidazo[1,2-a]pyridin-7-yl}-N-hydroxy-acrylamide], in test [1], the IC50 is 230 nM. In test [2] (COLO 205, 96 h treatment), this compound had a GI50 of 2100 nM.

As to `O=C(/C=C/c1ccn2c(CNCC3CC3)c(-c3ccccc3)nc2c1)NO` [Compound 61, 3-{3-[(Cyclopropylmethyl-amino)-methyl]-2-phenyl-imidazo[1,2-a]pyridin-7-yl}-N-hydroxy-acrylamide], the IC50 in test [1] was 80 nM. The same compound showed a GI50 in test [2] (COLO 205, 96 h treatment) of 560 nM.

`O=C(/C=C/c1ccn2c(CNC3CC3)c(-c3ccccc3)nc2c1)NO` [Compound 62, 3-(3-Cyclopropylaminomethyl-2-phenyl-imidazo[1,2-a]pyridin-7-yl)-N-hydroxy-acrylamide]: the IC50 in test [1] came to 310 nM. In addition, in test [2] (COLO 205, 96 h treatment), the GI50 came to 2500 nM.

Regarding `CC(C)(C)NCc1c(-c2ccccc2)nc2ccc(/C=C/C(=O)NO)cn12` [Compound 65, 3-[3-(tert-Butylamino-methyl)-2-phenyl-imidazo[1,2-a]pyridin-6-yl]-N-hydroxy-acrylamide], the IC50 in test [1] is more than 10000 nM. This compound also had a GI50 in test [2] (COLO 205, 96 h treatment) of 62000 nM.

For the compound `CCCCNCc1c(-c2ccccc2)nc2ccc(/C=C/C(=O)NO)cn12` [Compound 66, 3-(3-Butylaminomethyl-2-phenyl-imidazo[1,2-a]pyridin-6-yl)-N-hydroxy-acrylamide], in test [1], the IC50 was more than 10000 nM. For the same compound, in test [2] (COLO 205, 96 h treatment), the GI50 was 55000 nM.

On to `CC(C)(C)CNCc1c(C(C)(C)C)nc2cc(/C=C/C(=O)NO)ccn12` [Compound 67, 3-[2-tert-Butyl-3-[(2,2-dimethyl-propylamino)-methyl]-imidazo[1,2-a]pyridin-7-yl]-N-hydroxy-acrylamide], for which the IC50 in test [1] stood at 190 nM. Further, the GI50 in test [2] (COLO 205, 96 h treatment) is 1500 nM.

As for `CC(C)(C)NCc1c(C(C)(C)C)nc2cc(/C=C/C(=O)NO)ccn12` [Compound 69, 3-[2-tert-Butyl-3-(tert-butylamino-methyl)-imidazo[1,2-a]pyridin-7-yl]-N-hydroxy-acrylamide], in test [1], the IC50 was found to be 130 nM. The compound further had a GI50 in test [2] (COLO 205, 96 h treatment) of 740 nM.

For `CC(C)(C)NCc1c(-c2ccccc2)nc2cc(C(=O)NO)ccn12` [Compound 70, 3-(tert-Butylamino-methyl)-2-phenyl-imidazo[1,2-a]pyridine-7-carboxylic acid hydroxyamide], in test [1], the IC50 was more than 10000 nM. This compound also yielded a GI50 in test [2] (COLO 205, 96 h treatment) of more than 100000 nM.

Turning to `CCCCN(C)Cc1c(-c2ccccc2)nc2cc(/C=C/C(=O)NO)ccn12` [Compound 71, 3-{3-[(Butyl-methyl-amino)-methyl]-2-phenyl-imidazo[1,2-a]pyridin-7-yl}-N-hydroxy-acrylamide], the IC50 in test [1] amounted to 120 nM. Further, growth in test [2] (COLO 205, 96 h treatment) was halved (GI50) at 1000 nM.

Turning to `CCCCNCc1c(CCCC)nc2cc(/C=C/C(=O)NO)ccn12` [Compound 72, 3-(2-Butyl-3-butylaminomethyl-imidazo[1,2-a]pyridin-7-yl)-N-hydroxy-acrylamide], the IC50 in test [1] is 20 nM. The same compound displayed a GI50 in test [2] (COLO 205, 96 h treatment) of 180 nM.

On to `CCCCc1nc2cc(/C=C/C(=O)NO)ccn2c1CNC(C)(C)C` [Compound 73, 3-[2-Butyl-3-(tert-butylamino-methyl)-imidazo[1,2-a]pyridin-7-yl]-N-hydroxy-acrylamide], for which, in test [1], the IC50 was 20 nM. The compound also had a GI50 in test [2] (COLO 205, 96 h, 96 h treatment) of 140 nM.

`CCCCc1nc2cc(/C=C/C(=O)NO)ccn2c1CN(CCC)CCC` [Compound 74, 3-(2-Butyl-3-dipropylaminomethyl-imidazo[1,2-a]pyridin-7-yl)-N-hydroxy-acrylamide]: the IC50 in test [1] was found to be 200 nM. For the same compound, the GI50 in test [2] (COLO 205, 96 h treatment) is 610 nM.

As to `CCCCc1nc2cc(/C=C/C(=O)NO)ccn2c1CN(CC)CC` [Compound 75, 3-(2-Butyl-3-diethylaminomethyl-imidazo[1,2-a]pyridin-7-yl)-N-hydroxy-acrylamide], in test [1], the IC50 is 180 nM. Besides, the GI50 in test [2] (COLO 205, 96 h treatment) was determined as 680 nM.

For the compound `CCCCc1nc2cc(/C=C/C(=O)NO)ccn2c1CN(C)CCCC` [Compound 76, 3-{2-Butyl-3-[(butyl-methyl-amino)-methyl]-imidazo[1,2-a]pyridin-7-yl}-N-hydroxy-acrylamide], the IC50 in test [1] worked out at 70 nM. Besides, the GI50 in test [2] (COLO 205, 96 h treatment) stood at 170 nM.

Take `CCCCc1nc2cc(/C=C/C(=O)NO)ccn2c1CN(CC)CCCC` [Compound 77, 3-{2-Butyl-3-[(butyl-ethyl-amino)-methyl]-imidazo[1,2-a]pyridin-7-yl}-N-hydroxy-acrylamide]: the IC50 in test [1] stood at 60 nM. In addition, growth in test [2] (COLO 205, 96 h treatment) was halved (GI50) at 160 nM.
